# Measurements: patent US4333926A, “Steryl-β-D-glucoside pharmaceutical compositions and use” (Nippon Shinyaku Co., Ltd., priority 1979, dated 1982)
# Read-outs that look alike come from different tables or passages of the source.
# What was measured:
# [1] = test system: pulmonary hemorrhage under reduced pressure; assay: Vascular stabilization: pulmonary hemorrhage in mice under reduced pressure (Table 6; vascular stability summary table); format: in vivo; details: for ED50: Mus musculus, iv, read-out: Vascular stability ED50; for ED50 (pulmonary hemorrhage): reduced pressure 50±0.5 mm Hg/15 sec
# Procedure: For example, the following tables summarize the vascular stabilizing effect (described in detail below).
# The surprising vascular stabilizing effect of these compounds can also be shown in a number of recognized models of which the following are typical.
# The degree of pulmonary homorrhage in mice under reduced pressure of 50±0.5 mm Hg/15 sec was assessed by the scoring method, the ED50 of each compound being calculated from the ratio of inhibiting rate for treated animals over that for the control group according to the method of G. J. Mojovski et al., J. Pharmacol. Exp. Therap. 80, 1, 1944.
# [2] = test system: abdominal cutaneous vascular resistance; assay: Abdominal cutaneous vascular resistance, petechia appearance under reduced pressure (Borbely et al.); format: in vivo, guinea-pigs; details: 100 mg/kg, s.c.; reduced pressure 250 to 260 mm Hg
# Description: The effect on abdominal cutaneous vascular resistance in guinea-pigs can also be used as a model of vascular stabilization. The time of appearance of petechia in abdominal skin of guinea-pigs under reduced pressure of 250 to 260 mm Hg is used as the index, with the petechia appearance delaying effect of each test compound in comparison with the control being determined according to the method of V. Borbely et al., Munch.
# Arthus reaction = assay: Arthus reaction, increased vascular permeability (Benacerral et al.); format: in vivo, guinea-pigs; details: 100 mg/kg, i.p.; 5 hours after provocation
# Procedure: Increased vascular permeability five hours after provocation of reaction is measured as the leakage of hemoglobin according to the method of Benacerral et al., J. Immunol.
# [3] = test system: bleeding from amputated tail tip; assay: Hemostatic effect, bleeding from amputated tail tip (Motohashi et al.); format: in vivo, mice
# [4] = test system: bleeding from punctured ear vein; assay: Inhibitory effect on bleeding from ear vein (Duke); format: in vivo, rabbits; details: 10 mg/kg i.v., 3 hours after administration
# Description: The hemostatic effect can also be observed by measuring the inhibitory effect on bleeding from ear vein in rabbits.
# [5] = test system: hemorrhages induced by vesical mucosal resection; assay: Hemorrhage induced by vesical mucosal resection (Dermaut et al.); format: in vivo, dogs; details: 5 mg/kg i.v.
# [6] = test system: increased vascular permeability induced by formalin; assay: Increased vascular permeability induced by formalin; format: in vivo, rabbits; details: 100 mg/kg, i.p.
# Procedure: (§1) The inhibitory effect on increased vascular permeability caused by intracutaneous administration of histamine, hyaluronidase, lecithinase A and formalin is also correlated to vascular stabilization. This parameter was measured by the dye leakage method with the inhibitory effect of each test drug expressed in terms of inhibiting rate over the control according to the methods of Benditt et al., Proc. Soc. Biol. Med. 75 782 1950 and Orary et al., J. Exp. Med. 117, 951, 1963.
# [7] = test system: passive systemic anaphylaxis; assay: Passive systemic anaphylaxis lethality (Munoz et al.); format: in vivo, guinea-pigs
# Procedure: The preventive effect against passive systemic anaphylaxis was determined according to the method of Munoz et al., J. Immunol., 80, 77 (1958). An antigen of 80% lethal dose is intravenously administered to antiserum-sensitized guinea-pigs, and the resultant passive systemic anaphylaxis lethality is expressed as the inhibition rate as compared with the control group.
# [8] = test system: increased vascular permeability caused by histamine; assay: Increased vascular permeability caused by histamine, rabbit; format: in vivo; details: 100 mg/kg, i.p.
# Procedure: as §1
# [9] = test system: increased vascular permeability caused by histamine; assay: Increased vascular permeability caused by histamine, rat; format: in vivo; details: 100 mg/kg, i.p.
# Procedure: as §1
# [10] = test system: local hemorrhage induced by snake venom (Naja Naja cobra); assay: Local hemorrhage induced by snake venom; format: in vivo, rats
# Procedure: The inhibitory effect of SG and SGP on local hemorrhage induced by abdominal intracutaneous administration of snake venom (Naja Naja cobra) in rats was determined in terms of inhibiting rate against untreated control rats.
# [11] = test system: increased vascular permeability induced by hyaluronidase; assay: Increased vascular permeability induced by hyaluronidase, rabbit; format: in vivo; details: 100 mg/kg, i.p.
# Procedure: as §1
# [12] = test system: gastric mucosal hemorrhaging induced by electroshock; assay: Gastric mucosal hemorrhage induced by electroshock (Danno et al.); format: in vivo, rats
# [13] = test system: increased vascular permeability induced by lecithinase A; assay: Increased vascular permeability induced by lecithinase A; format: in vivo, rabbits; details: 100 mg/kg, i.p.
# Procedure: as §1
# endotoxin shock = assay: Endotoxin shock mortality (48 hours); format: in vivo
# Procedure: The mortality rate during the period of 48 hours following intravenous administration of 80% lethal dose (8 mg/kg) of endotoxin is observed with the effect of each compound being expressed as the ED50 (see Tanabe et al., Pharmacometrics Vol. 7 591, 1973).
# [14] = test system: increased vascular permeability induced by hyaluronidase; assay: Increased vascular permeability induced by hyaluronidase, rat; format: in vivo; details: 100 mg/kg, i.p.
# Procedure: as §1
compound,measurement,setting,value
CC(C)[C@H](C)CC[C@@H](C)[C@H]1CC[C@H]2[C@@H]3CC=C4C[C@@H](O[C@@H]5O[C@H](CO)[C@@H](O)[C@H](O)[C@H]5O)CC[C@]4(C)[C@H]3CC[C@]12C [Campesteryl-β-D-glucoside],ED50,[1],2.4 mg/kg
CN1C2=CC(=O)/C(=N\NC(N)=O)C=C2CC1S(=O)(=O)[O-].[Na+] (centres unmarked) [Carbazochrome sodium sulfonate],Prolongation Rate (test group/control group),[2],1.7
same,% Inhibition (Arthus reaction),Arthus reaction,26.3%
same,ED50 (hemostatic effect),[3]; i.p.,5.4 mg/kg
same,ED50 (hemostatic effect),[3]; i.v.,3.6 mg/kg
same,ED50 (hemostatic effect),[3]; p.o.,36.0 mg/kg
same,% Reduction (time of bleeding),[4],20.0%
same,% Inhibition (bleeding),[5],39.9%
same,% Inhibition,[6],0.4%
same,% Inhibition (PSA lethality),"[7]; 100 mg/kg, i.p., antigen 80% lethal dose i.v.",20%
same,effect on passive systemic anaphylaxis,[7]; dose of 100 mg/kg,only very slight effects
same,% Inhibition,[8],29.6%
same,% Inhibition,[9],32.7%
same,ED50 (pulmonary hemorrhage),[1]; i.p.,112.0 mg/kg
same,ED50 (pulmonary hemorrhage),[1]; i.v.,80.0 mg/kg
same,ED50 (pulmonary hemorrhage),[1]; p.o.,400.0 mg/kg
same,inhibitory effect against hemorrhagic action of snake venom,[10]; 100 mg/kg,only slight effects
same,% Inhibition (local hemorrhage),[10]; 100 mg/kg i.p.,9.1%
same,% Inhibition,[11],4.7%
same,electroshock hemorrhage arresting effect,[12]; dose of 200 mg/kg,no noticeable effect
same,ED50 (inhibiting gastric mucosal hemorrhage),"[12]; s.c., electroshock 100-200 V, 3 times/min., 24 hours",> 200.0 mg/kg
same,% Inhibition,[13],10.8%
same,effect on endotoxin shock,endotoxin shock; doses of less than 200 mg/kg,no niticeable effect
same,ED50 (endotoxin shock),"endotoxin shock; i.p., endotoxin 80% lethal dose (8 mg/kg) i.v., 48 hours",> 200.0 mg/kg
same,inhibitory effect against death from endotoxin-shock,endotoxin shock; in vivo,far inferior in effect to SG and SGP
same,% Inhibition,[14],-4.5%
CC(C)CCC[C@@H](C)[C@H]1CC[C@H]2[C@@H]3CC=C4C[C@@H](O[C@@H]5O[C@H](CO)[C@@H](O)[C@H](O)[C@H]5O)CC[C@]4(C)[C@H]3CC[C@]12C [Cholesteryl-β-D-glucoside],ED50,[1]; summary table by compound,1.8 mg/kg
CC[C@H](/C=C/[C@@H](C)[C@H]1CC[C@H]2[C@@H]3CC=C4C[C@@H](O[C@@H]5O[C@H](CO)[C@@H](O)[C@H](O)[C@H]5O)CC[C@]4(C)[C@H]3CC[C@]12C)C(C)C [Stigmasteryl-β-D-glucoside],ED50,[1]; summary table by compound,2.33 mg/kg
CC[C@H](CC[C@@H](C)[C@H]1CC[C@H]2[C@@H]3CC=C4C[C@@H](O[C@@H]5O[C@H](CO)[C@@H](O)[C@H](O)[C@H]5O)CC[C@]4(C)[C@H]3CC[C@]12C)C(C)C [β-sitosteryl-β-D-glucoside],ED50,[1]; summary table by compound,1.48 mg/kg
